Consider two compounds from paper PMC5823870 (Scientific Reports, 2018).

In series [1] the target is Blh DUF442 domain (ST domain) (Xylella fastidiosa, UniProt Q9PFB0). As to conditions: 12 mM potassium phosphate pH 7.4, 25 °C; 12 mM thiosulfate; cyanide as sulfur acceptor.
Another series concerns O=S(O)(O)=S. Kind of series: purified protein. The following applies: 12 mM potassium phosphate pH 7.4, 25 °C, cyanide 12 mM as sulfur acceptor (methods print potassium cyanate), thiosulfate 0 to 100 mM.

Chain of Blh DUF442 domain (ST domain) (Q9PFB0 1-141 limits assumed): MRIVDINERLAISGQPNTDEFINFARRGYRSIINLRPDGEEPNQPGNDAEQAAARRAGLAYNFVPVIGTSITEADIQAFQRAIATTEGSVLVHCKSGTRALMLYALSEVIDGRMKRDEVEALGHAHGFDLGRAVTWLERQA

In the case of `O=S(=O)(O)S` [thiosulfate], the “rhodanese assay, iron-thiocyanate absorbance at 460 nm” value in series [1] is “catalyze the transfer of the sulfane sulfur of thiosulfate to cyanide”. For “full-length Blh (Xylella fastidiosa 9a5c)”, the Michaelis-Menten constant (Km) in the series with O=S(O)(O)=S turned out to be 6.2 mM.

What is called Km is the substrate concentration at which the rate is half of its maximum.
